Measurements from patent US8962600B2, “Neuroprotective compounds and their use” (The Medical College of Wisconsin, Inc., priority 2009, dated 2015).

Legend:
IL-10 = assay: LPS-induced IL-10 release in primary microglia, LUMINEX immunoassay; type: cell-based, mouse; details: diapocynin 10 μM, LPS 24 hr
Method: (§1) Primary microglia were obtained from 1-2 day old C57/b16 mouse pups. Upon collection, whole brains were kept in ice-cold DMEM-F12 medium containing 10% FBS, 1× sodium pyruvate, 1× NEAAs, 100 units pen/strep, and Q. After collection, the brains were placed in 0.25% trypsin-EDTA and incubated at 37° C., with gentle shaking every 5-10 min. After 30 min, the trypsin was removed, and the brains are washed in warmed medium twice. After washing, medium was added to the brains, and the brains were homogenized using gentle pipetting, starting with a 25 ml pipette and moving to smaller pipette tips as the brains were broken up. When the brains were sufficiently homogenized to a single-cell suspension, they were filtered with a 70 μm nylon filter, which allowed microglia and astrocytes to be collected. The resultant cell suspension was plated in T-75 flasks and allowed to grow for 12-14 days at 37° C., 5% CO2. […]
(§2) Cytokine levels of BV2 and microglial cells treated with diapocynin were determined by LUMINEX® multiplex immunoassay. […]
(§3) Cytokine standards and controls were adjusted to 40 μl volume and the LUMINEX® Samples were run on a LUMINEX® 200 Total System and analyzed with Multiplex Analysis—LUMINEX® Software (Invitrogen, Carlsbad, Calif.).

IL-1β = assay: LPS-induced IL-1β release in primary microglia, LUMINEX immunoassay; type: cell-based, mouse; details: diapocynin 10 μM, LPS 24 hr
Method: as §1, §2, §3

[1] = test system: dopaminergic neurons in substantia nigra; assay: FLUORO-JADE B and tyrosine hydroxylase double labeling in substantia nigra; type: in vivo, C57BL/6 mice; details: MPTP- and diapocynin-treated mice; 7 days after final MPTP injection
Method: Six- to 8-week-old C57BL/6 mice weighing 24 to 28 g were housed in standard conditions of constant temperature (22±1° C.), humidity (relative, 30%), and a 12-h light/dark cycle. Mice were allowed free access to food and water. Use of the animals and protocol procedures were approved and supervised by the Committee on Animal Care at Iowa State University (Ames, Iowa). For neurodegeneration studies, mice either received diapocynin (300 mg/kg dose) by oral gavage for 1 day (pre-treatment before MPTP administration), 5 days (co-treatment with MPTP), or 7 days (post-treatment after MPTP).
FLUORO-JADE B® and tyrosine hydroxylase (TH) double-labeling was performed in substantia nigra sections, as described previously (58). In brief, 7 days after the final MPTP injection, mice were sacrificed and perfused with 4% PFA and post-fixed with PFA and 30% sucrose, respectively. Fixed brains were cut into 30 μm sections and kept in 30% sucrose-ethylene glycol solutions at −20° C. On the day of staining, sections were rinsed with PBS and incubated with anti-TH antibody (Millipore, mouse monoclonal, dilution 1;1600) followed by Alexa Fluor 568 donkey anti-mouse secondary antibody (Invitrogen). […] Sections were viewed under a Nikon inverted fluorescence microscope (model TE-2000U). […]

## COc1cc(C(C)=O)cc(-c2cc(C(C)=O)cc(OC)c2O)c1O [diapocynin]
IL-10
  blocking LPS-induced release of IL-10: very effective
IL-1β
  blocking LPS-induced release of IL-1β: very effective
[1]
  FLUORO-JADE B-positive cells in substantia nigra: fewer
  TH-positive cells in substantia nigra: increases
